Patent US5925769A, “Acetylenic 1,5-diarylpyrazoles as antiinflammatory agents” (Ortho Pharmaceutical, Corp., priority 1998, dated 1999)

Key:
CO = assay: Procedure IV: ex vivo eicosanoid synthesis assay using dogs, CO (TxB2); type: in vivo; settings: dog, oral, 5 mg/kg
Procedure: (§1) Adult beagle or mongrel dogs (10-15 kg) of either sex were fasted overnight prior to the initiation of each experiment. The forelimb was clipped and swabbed with an alcohol prep (70% isopropanol). Blood was drawn by venipuncture into syringes containing lithium heparin (Starstead, Newton, N.C.) immediately prior to administration of compound or vehicle and then at various intervals following dosing. The test compound was administered orally as a suspension in 0.5% methocel. At various times after dosing, blood samples were drawn and placed on an electric rocker platform to assure complete and continuous mixing. White blood cell (wbc) counts were performed using a Sysmex hematology analyzer. This was done in an effort to normalize the number of leukocytes to be stimulated with calcium ionophore. A 1.0 mL aliquot of whole blood was challenged with 50 μL of a 2.6×10^-5 M solution of calcium ionophore A23187 (Calbiochem, La Jolla, Calif.) prepared in DMSO and diluted in HBSS. After a 15 minute incubation at 37° C., the reaction was stopped by placing the samples in an ice bath (4° C.) for 5 minutes and then centrifuging at 11,000×g for 5 minutes to separate the plasma fraction from blood cells. The plasma fraction was removed, diluted in an appropriate buffer, and analyzed for the presence of LTB4 and TxB2 by standard RIA techniques.

5-LO [1] = assay: Procedure IV: ex vivo eicosanoid synthesis assay using dogs, 5-LO (LTB4); type: in vivo; settings: dog, oral, 5 mg/kg
Procedure: as §1

5-LO [2] = target: T1, 5-LO (Rattus norvegicus, UniProt P12527); assay: Procedure III: 5-LO (5-HETE) in intact RBL-1 cells; type: cell-based; settings: calcium ionophore A 23187, read-out: Proc. III 5-LO IC50
T1 construct: the supernatant was saved as the source of enzymes; endogenous in cells; host or cells: RBL-1 (rat basophilic leukemia) cells
T1 sequence (P12527 1-673): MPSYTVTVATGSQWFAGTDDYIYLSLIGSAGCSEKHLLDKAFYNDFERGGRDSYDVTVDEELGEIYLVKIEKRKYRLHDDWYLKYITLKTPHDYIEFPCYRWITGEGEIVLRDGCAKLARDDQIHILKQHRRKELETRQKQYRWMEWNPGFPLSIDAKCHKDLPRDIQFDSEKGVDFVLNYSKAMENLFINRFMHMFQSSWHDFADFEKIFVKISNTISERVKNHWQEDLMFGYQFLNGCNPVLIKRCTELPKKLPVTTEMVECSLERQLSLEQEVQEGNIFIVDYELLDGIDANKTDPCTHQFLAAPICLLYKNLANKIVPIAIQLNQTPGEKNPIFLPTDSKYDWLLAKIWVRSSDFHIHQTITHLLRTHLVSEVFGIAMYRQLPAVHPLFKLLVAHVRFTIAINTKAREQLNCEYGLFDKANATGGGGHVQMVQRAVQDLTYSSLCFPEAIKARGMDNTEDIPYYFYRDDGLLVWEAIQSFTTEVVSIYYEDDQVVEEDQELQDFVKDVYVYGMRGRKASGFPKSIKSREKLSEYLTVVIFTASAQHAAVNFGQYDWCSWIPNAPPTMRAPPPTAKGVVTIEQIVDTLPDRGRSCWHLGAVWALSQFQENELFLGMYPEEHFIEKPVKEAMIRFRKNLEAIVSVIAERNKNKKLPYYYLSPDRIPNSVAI
Summary of the method: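 Intact RBL-1 cells at 1×10^5 cells/mL in HBSS were preincubated with vehicle or drug, pelleted and resuspended, then given 1-^14C-AA. 5-HETE (5-LO) and PgD2 (CO) were separated by TLC after acidification/extraction and quantified by radioimaging; IC50 from regression curve fit.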

[3] = target: T2, Sheep seminal vesicle (SSV) cyclooxygenase (Ovis aries, UniProt P05979); assay: Procedure I: inhibition of sheep seminal vesicle (SSV) cyclooxygenase; type: biochemical; settings: SSV cyclooxygenase; read-out: Proc. I IC50
T2 construct: Sheep seminal vesicle (SSV) cyclooxygenase (95% pure); purchased Biomol (Plymouth Meeting, PA); host or cells: sheep seminal vesicle
T2 sequence (P05979 25-600): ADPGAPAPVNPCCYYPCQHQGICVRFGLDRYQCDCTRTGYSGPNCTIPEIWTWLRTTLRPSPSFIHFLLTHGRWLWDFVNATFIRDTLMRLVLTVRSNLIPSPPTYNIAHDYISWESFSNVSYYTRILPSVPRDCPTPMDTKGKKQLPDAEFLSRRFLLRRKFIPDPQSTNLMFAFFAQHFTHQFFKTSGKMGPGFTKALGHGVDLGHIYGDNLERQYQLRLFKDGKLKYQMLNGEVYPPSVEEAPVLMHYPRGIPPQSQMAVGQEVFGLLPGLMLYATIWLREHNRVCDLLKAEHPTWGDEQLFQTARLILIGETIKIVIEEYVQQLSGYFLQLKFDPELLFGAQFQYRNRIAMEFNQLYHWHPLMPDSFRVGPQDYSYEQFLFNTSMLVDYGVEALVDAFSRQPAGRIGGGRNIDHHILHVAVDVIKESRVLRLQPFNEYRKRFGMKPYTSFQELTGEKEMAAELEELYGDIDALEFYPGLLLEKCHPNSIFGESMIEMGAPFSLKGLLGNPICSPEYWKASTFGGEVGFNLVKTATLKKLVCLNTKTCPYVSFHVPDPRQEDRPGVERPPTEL
Summary of the method: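 Sheep seminal vesicle cyclooxygenase was preincubated with compound for 5 min at 37° C, then reacted with [1-14C]-arachidonic acid for 20 min. After formic acid stop and chloroform extraction, radioactive prostaglandin products were separated by TLC and scanned. Inhibition was derived from areas under the curve with and without compound.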

5-LO [4] = target: T1, 5-LO; assay: Procedure II: 5-LO activity (5-HETE) in broken RBL-1 cells (homogenate supernatant); type: biochemical; settings: RBL-1 broken cell supernatant; read-out: Proc. II 5-LO IC50
Summary of the method: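 Supernatant from rat RBL-1 homogenate (9,220×g) was pre-incubated 5 min at 37 °C with 2 mM CaCl2 and compound or 1% DMSO, then with 1-^14C-arachidonic acid for 20 min at 37 °C.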

IC50 (5-LO [2]): 8.1 µM | IC50 [3]: 2.54 µM | IC50 (5-LO [4]): 0.11 µM
Structure (SMILES): COc1ccc(-n2nc(C#CC(C)N(O)C(C)=O)cc2-c2ccc(Cl)cc2)cc1 (stereo not shown) [Cpd 35, N-acetyl-N-(1-(5-(4-chlorophenyl)-1-(4-methoxyphenyl)pyrazol-3-yl)-1-butyn-3-yl)hydroxylamine]
% inh CO (CO; 2 h): 92% | % inh CO (CO; 4 h): 75% | % inh CO (CO; 6 h): 81% | % inh CO (CO; 8 h): 62% | % inh CO (CO; 24 h): 68% | % inh 5-LO (5-LO [1]; 2 h): 34% | % inh 5-LO (5-LO [1]; 4 h): 20% | % inh 5-LO (5-LO [1]; 6 h): 26% | % inh 5-LO (5-LO [1]; 8 h): 31% | % inh 5-LO (5-LO [1]; 24 h): 12%
